# Measured values published in ChEMBL document CHEMBL4765365, “Design, synthesis and antitumour evaluation of pyrrolo[1,2-f]-phenanthridine and dibenzo[f,h]pyrrolo[1,2-b]isoquinoline derivatives” (Eur J Med Chem, 2020).
# How the values were obtained:
# NCI-H460 [1] = test: Induction of cell cycle arrest in human NCI-H460 cells assessed as G2/M phase at 1.5 uM incubated for 12 hrs by PI staining based flow cytometry analysis (reference value: 22.9 +/- 6.8 %); format: functional
# HCT-116 [2] = test: Induction of cell cycle arrest in human HCT-116 cells assessed as G0 phase at 0.75 uM measured at 0 hrs by PI staining based flow cytometry analysis (reference value: 0.7 +/- 0.2 %); format: functional
# NCI-H460 [3] = test: Induction of apoptosis in human NCI-H460 cells assessed as late apoptotic cells at 3 uM incubated for 48 hrs by annexin V-FITC and PI staining based flow cytometry analysis (reference value: 7.3 %); format: functional
# HCT-116 [4] = test: Antitumor activity against human HCT-116 cells xenografted in nude mouse assessed as reduction in tumor size at 30 mg/kg, iv administered for 5 days and repeated cycle for 2 days interval and measured on day 24; format: functional; settings: HCT-116, iv, 576 h, time 24 day, read-out: TGI
# HCT-116 [5] = test: Induction of cell cycle arrest in human HCT-116 cells assessed as S phase at 0.375 uM incubated for 24 hrs by PI staining based flow cytometry analysis (reference value: 21.2 +/- 5.4 %); format: functional
# NCI-H460 [6] = test: Induction of cell cycle arrest in human NCI-H460 cells assessed as G1 phase at 3 uM measured at 0 hrs by PI staining based flow cytometry analysis (reference value: 53.4 +/- 4.8 %); format: functional
# NCI-H460 [7] = test: Induction of apoptosis in human NCI-H460 cells assessed as early apoptotic cells at 6 uM incubated for 48 hrs by annexin V-FITC and PI staining based flow cytometry analysis (reference value: 2 %); format: functional
# NCI-H460 [8] = test: Antitumor activity against human NCI-H460 cells xenografted in nude mouse assessed as reduction in tumor size at 30 mg/kg, iv administered for 5 days and repeated cycle for 2 days interval and measured on day 24; format: functional; settings: 576 h, time 24 day, read-out: TGI
# NCI-H460 [9] = test: Induction of cell cycle arrest in human NCI-H460 cells assessed as G0 phase at 1.5 uM incubated for 12 hrs by PI staining based flow cytometry analysis (reference value: 2.9 +/- 2.4 %); format: functional
# NCI-H460 [10] = test: Induction of cell cycle arrest in human NCI-H460 cells assessed as G0 phase at 0.75 uM incubated for 24 hrs by PI staining based flow cytometry analysis (reference value: 1.6 +/- 0.6 %); format: functional
# NCI-H460 [11] = test: Induction of cell cycle arrest in human NCI-H460 cells assessed as G2/M phase at 1.5 uM incubated for 24 hrs by PI staining based flow cytometry analysis (reference value: 21 +/- 6.7 %); format: functional
# NCI-H460 [12] = test: Induction of cell cycle arrest in human NCI-H460 cells assessed as G2/M phase at 0.75 uM incubated for 24 hrs by PI staining based flow cytometry analysis (reference value: 21 +/- 6.7 %); format: functional
# NCI-H460 [13] = test: Induction of cell cycle arrest in human NCI-H460 cells assessed as S phase at 1.5 uM incubated for 12 hrs by PI staining based flow cytometry analysis (reference value: 11.2 +/- 4.3 %); format: functional
# HCT-116 [14] = test: Induction of cell cycle arrest in human HCT-116 cells assessed as G2/M phase at 1.5 uM incubated for 36 hrs by PI staining based flow cytometry analysis (reference value: 23.6 +/- 1 %); format: functional
# NCI-H460 [15] = test: Induction of cell cycle arrest in human NCI-H460 cells assessed as G0 phase at 3 uM incubated for 36 hrs by PI staining based flow cytometry analysis (reference value: 2.8 +/- 0.7 %); format: functional
# HCT-116 [16] = test: Induction of cell cycle arrest in human HCT-116 cells assessed as S phase at 0.75 uM incubated for 12 hrs by PI staining based flow cytometry analysis (reference value: 15.5 +/- 0.2 %); format: functional
# NCI-H460 [17] = test: Induction of cell cycle arrest in human NCI-H460 cells assessed as G2/M phase at 3 uM incubated for 24 hrs by PI staining based flow cytometry analysis (reference value: 21 +/- 6.7 %); format: functional
# NCI-H460 [18] = test: Induction of cell cycle arrest in human NCI-H460 cells assessed as G2/M phase at 1.5 uM measured at 0 hrs by PI staining based flow cytometry analysis (reference value: 25.2 +/- 4 %); format: functional
# HCT-116 [19] = test: Induction of cell cycle arrest in human HCT-116 cells assessed as G1 phase at 1.5 uM incubated for 36 hrs by PI staining based flow cytometry analysis (reference value: 57.4 +/- 1.3 %); format: functional
# NCI-H460 [20] = test: Induction of cell cycle arrest in human NCI-H460 cells assessed as S phase at 1.5 uM measured at 0 hrs by PI staining based flow cytometry analysis (reference value: 12.2 +/- 2.8 %); format: functional
# NCI-H460 [21] = test: Induction of cell cycle arrest in human NCI-H460 cells assessed as G0 phase at 1.5 uM measured at 0 hrs by PI staining based flow cytometry analysis (reference value: 1.3 +/- 0.9 %); format: functional
# NCI-H460 [22] = test: Induction of cell cycle arrest in human NCI-H460 cells assessed as G2/M phase at 1.5 uM incubated for 36 hrs by PI staining based flow cytometry analysis (reference value: 25 +/- 1.2 %); format: functional
# NCI-H460 [23] = test: Induction of cell cycle arrest in human NCI-H460 cells assessed as S phase at 3 uM incubated for 12 hrs by PI staining based flow cytometry analysis (reference value: 11.2 +/- 4.3 %); format: functional
# HCT-116 [24] = test: Induction of cell cycle arrest in human HCT-116 cells assessed as S phase at 0.375 uM measured at 0 hrs by PI staining based flow cytometry analysis (reference value: 12.4 +/- 6.2 %); format: functional
# NCI-H460 [25] = test: Induction of cell cycle arrest in human NCI-H460 cells assessed as G0 phase at 1.5 uM incubated for 24 hrs by PI staining based flow cytometry analysis (reference value: 1.6 +/- 0.6 %); format: functional
# HCT-116 [26] = test: Induction of cell cycle arrest in human HCT-116 cells assessed as S phase at 1.5 uM incubated for 12 hrs by PI staining based flow cytometry analysis (reference value: 15.5 +/- 0.2 %); format: functional
# NCI-H1650 = test: Cytotoxicity against human NCI-H1650 cells assessed as reduction in cell viability incubated for 72 hrs by XTT assay; format: functional, cell-based; settings: NCI-H1650, 72 h
# HCT-116 [27] = test: Induction of cell cycle arrest in human HCT-116 cells assessed as G2/M phase at 0.375 uM incubated for 24 hrs by PI staining based flow cytometry analysis (reference value: 9.3 +/- 0.8 %); format: functional
# HCT-116 [28] = test: Induction of cell cycle arrest in human HCT-116 cells assessed as G1 phase at 0.375 uM incubated for 12 hrs by PI staining based flow cytometry analysis (reference value: 53.6 +/- 4.5 %); format: functional
# HCT-116 [29] = test: Induction of cell cycle arrest in human HCT-116 cells assessed as S phase at 0.375 uM incubated for 36 hrs by PI staining based flow cytometry analysis (reference value: 7.9 +/- 3.7 %); format: functional
# HCT-116 [30] = test: Induction of cell cycle arrest in human HCT-116 cells assessed as G0 phase at 0.375 uM incubated for 12 hrs by PI staining based flow cytometry analysis (reference value: 2.2 +/- 1.7 %); format: functional
compound,measurement,setting,value
OCc1cn2c3ccccc3c3ccccc3c2c1CO,Activity,NCI-H460 [1],25.1%
same,Activity,HCT-116 [2],0.8%
same,Activity,NCI-H460 [3],51.4%
same,inhibition in vivo at 30 mg/kg,HCT-116 [4],72%
same,Activity,HCT-116 [5],17.2%
same,Activity,NCI-H460 [6],52.1%
same,Activity,NCI-H460 [7],29.2%
same,inhibition in vivo at 30 mg/kg,NCI-H460 [8],66%
same,Activity,NCI-H460 [9],2.6%
same,Activity,NCI-H460 [10],1.8%
same,Activity,NCI-H460 [11],25.4%
same,Activity,NCI-H460 [12],24.1%
same,Activity,NCI-H460 [13],16.3%
same,Activity,HCT-116 [14],20.7%
same,Activity,NCI-H460 [15],8.7%
same,Activity,HCT-116 [16],16.9%
same,Activity,NCI-H460 [17],30%
same,Activity,NCI-H460 [18],23.9%
same,Activity,HCT-116 [19],52.3%
same,Activity,NCI-H460 [20],12%
same,Activity,NCI-H460 [21],1.4%
same,Activity,NCI-H460 [22],17.5%
same,Activity,NCI-H460 [23],17.3%
same,Activity,HCT-116 [24],12.4%
same,Activity,NCI-H460 [25],2.8%
same,Activity,HCT-116 [26],19.9%
same,IC50,NCI-H1650,3.73 µM
same,Activity,HCT-116 [27],17.8%
same,Activity,HCT-116 [28],51.6%
same,Activity,HCT-116 [29],8.2%
same,Activity,HCT-116 [30],1.8%
